Experimental data: PubChem BioAssay (NCI)
Values joined by “and” are separate entries in the source; they are usually repeats but may differ in a detail not shown here. Equal entries are not always repeated.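 In this assay, cells in 96-well plates receive the compound at five concentrations for 48 hours. Endpoints are linearly interpolated between the surrounding concentrations. The concentration for 50% growth inhibition is given as GI50. TGI is the concentration that stops growth completely.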

Tests used:
Experiment in all cases: NCI-60 cell line screen, 48 h
[1] = test system: DU-145 prostate
[2] = test system: SK-OV-3 ovarian
[3] = test system: HS 578T breast
[4] = test system: NCI/ADR-RES ovarian
[5] = test system: MOLT-4 leukemia
[6] = test system: NCI-H23 lung
[7] = test system: RPMI-8226 leukemia
[8] = test system: PC-3 prostate
[9] = test system: HCC-2998 colon
[10] = test system: MDA-MB-231 breast

S=C(Nc1ccc(-c2nc3ccccc3s2)cc1)Nc1ccccn1
GI50 [1]: 28.5 µM
TGI [1]: > 100 µM
GI50 [2]: 59.7 µM
TGI [2]: > 100 µM
GI50 [3]: 21.5 µM
TGI [3]: 59.2 µM
GI50 [4]: 24.6 µM
TGI [4]: 66.6 µM
GI50 [5]: 18.8 µM
TGI [5]: > 86.7 µM
GI50 [6]: 25.7 µM
TGI [6]: 70.6 µM
GI50 [7]: 33.8 µM
TGI [7]: > 100 µM
GI50 [8]: 23.6 µM
TGI [8]: > 71.7 µM
GI50 [9]: 21.9 µM
TGI [9]: 60.2 µM
GI50 [10]: 16.6 µM
TGI [10]: 48.3 µM

O=C(/C=C/c1ccccc1Cl)c1ccc(O)cc1
GI50 [1]: 4.16 µM
TGI [1]: 13.1 µM
GI50 [2]: 12.1 µM
TGI [2]: 25.9 µM
GI50 [3]: 2.33 µM
TGI [3]: 7.19 µM
GI50 [4]: 16.4 µM
TGI [4]: > 70.6 µM
GI50 [5]: 5.64 µM
TGI [5]: > 57.6 µM
GI50 [6]: 10.6 µM
TGI [6]: 31.5 µM
GI50 [7]: 0.495 µM
TGI [7]: 3.39 µM
GI50 [8]: 5.65 µM
TGI [8]: 26.5 µM
GI50 [9]: 12.7 µM
TGI [9]: 26.7 µM
GI50 [10]: 13.6 µM
TGI [10]: 31 µM

CCCCN(CCCC)c1cc(C(=O)CCCCCN)c2ccccc2n1
GI50 [1]: 1.89 µM
TGI [1]: 3.41 µM
GI50 [2]: 1.76 µM
TGI [2]: 3.16 µM
GI50 [3]: 2.13 µM
TGI [3]: 6.05 µM
GI50 [4]: 1.78 µM
TGI [4]: 3.61 µM
GI50 [5]: 2.54 µM
TGI [5]: 5.47 µM
GI50 [6]: 1.89 µM
TGI [6]: 3.8 µM
GI50 [7]: 2.95 µM
TGI [7]: 6.53 µM
GI50 [8]: 2.56 µM
TGI [8]: 6.07 µM
GI50 [9]: 1.76 µM
TGI [9]: 3.21 µM
GI50 [10]: 1.62 µM
TGI [10]: 3.09 µM

CCN(CC)CCC(CNc1c2ccc([N+](=O)[O-])cc2nc2cc(OC)c(OC)cc12)c1ccccc1 (centres undefined)
GI50 [1]: 0.134 µM and 0.0582 µM
TGI [1]: 1.04 µM and 0.301 µM
GI50 [2]: 0.844 µM and 0.695 µM
TGI [2]: 2.17 µM and 2.55 µM
GI50 [3]: 0.528 µM and 0.272 µM
TGI [3]: 2.88 µM and 1.2 µM
GI50 [4]: 1.53 µM and 1.72 µM
TGI [4]: 5.1 µM and 5.07 µM
GI50 [5]: 0.317 µM and 0.444 µM
TGI [5]: 2.41 µM and 5.93 µM
GI50 [6]: 0.292 µM and 0.287 µM
TGI [6]: 1.23 µM and 1.29 µM
GI50 [7]: 0.272 µM and 0.0638 µM
TGI [7]: 1.15 µM and 0.411 µM
GI50 [8]: 0.305 µM and 0.209 µM
TGI [8]: 1.01 µM and 0.98 µM
GI50 [9]: 0.138 µM and 0.114 µM
TGI [9]: 0.348 µM and 0.284 µM
GI50 [10]: 0.174 µM and 0.178 µM
TGI [10]: 0.627 µM and 0.73 µM

Nc1cccc(-c2nc3sccn3c2-c2ccnc(NCCCNS(=O)(=O)c3ccc(C(F)(F)F)cc3)n2)c1
GI50 [1]: 4.26 µM
TGI [1]: 35.6 µM
GI50 [2]: 5.37 µM
TGI [2]: > 100 µM
GI50 [3]: 4.05 µM
TGI [3]: 61.6 µM
GI50 [4]: 3.36 µM
TGI [4]: 56.9 µM
GI50 [5]: 2.8 µM
TGI [5]: 10.4 µM
GI50 [6]: 5.07 µM
TGI [6]: 40.9 µM
GI50 [7]: 2.45 µM
TGI [7]: 6.54 µM
GI50 [8]: 2.41 µM
TGI [8]: 11.9 µM
GI50 [9]: 5.29 µM
TGI [9]: 92 µM
GI50 [10]: 4.85 µM
TGI [10]: 94 µM

COc1ccc(C2=C(Br)C(=O)OC2)cc1Cl
GI50 [1]: 20.8 µM
TGI [1]: 88.9 µM
TGI [2]: > 66.9 µM
GI50 [3]: 41.2 µM
TGI [3]: > 88.5 µM
GI50 [4]: 29.4 µM
TGI [4]: > 79.2 µM
GI50 [5]: 29.5 µM
TGI [5]: > 100 µM
GI50 [6]: 29.5 µM
TGI [6]: > 100 µM
GI50 [7]: 17.3 µM
TGI [7]: 48.5 µM
GI50 [8]: 33.1 µM
TGI [8]: > 91.5 µM
GI50 [9]: 14.9 µM
TGI [9]: 38.2 µM
GI50 [10]: 24.7 µM
TGI [10]: 69.9 µM

COc1cc(-c2nn(C)nc2-c2cc3ccccc3s2)cc(OC)c1OC
GI50 [1]: 0.263 µM
TGI [1]: > 100 µM
GI50 [2]: 0.311 µM
TGI [2]: > 100 µM
GI50 [3]: 0.27 µM
TGI [3]: > 100 µM
GI50 [4]: 0.103 µM
TGI [4]: > 100 µM
GI50 [5]: 0.333 µM
TGI [5]: > 100 µM
GI50 [6]: 0.392 µM
TGI [6]: > 100 µM
GI50 [7]: 0.362 µM
TGI [7]: > 100 µM
GI50 [8]: 0.0779 µM
TGI [8]: > 100 µM
GI50 [9]: 0.407 µM
TGI [9]: > 100 µM
GI50 [10]: 1.6 µM
TGI [10]: > 100 µM

O=C(/C=C\c1cccc([N+](=O)[O-])c1)c1ccccc1
GI50 [1]: 2.35 µM
TGI [1]: 5.88 µM
GI50 [2]: 15 µM
TGI [2]: 30.4 µM
GI50 [3]: 5.97 µM
TGI [3]: 61 µM
GI50 [4]: 5.48 µM
TGI [4]: 30.1 µM
GI50 [5]: 3.19 µM
TGI [5]: > 100 µM
GI50 [6]: 6.16 µM
TGI [6]: 21.3 µM
GI50 [7]: 1.07 µM
TGI [7]: > 100 µM
GI50 [8]: 2.67 µM
TGI [8]: 11.3 µM
GI50 [9]: 2.81 µM
TGI [9]: 9.74 µM
GI50 [10]: 9.72 µM
TGI [10]: 25.1 µM

N#CC(NC12CC3CC(CC(C3)C1)C2)c1ccccc1 (centres undefined)
TGI [1]: > 100 µM
TGI [2]: > 100 µM
TGI [3]: > 100 µM
TGI [4]: > 100 µM
TGI [5]: > 100 µM
TGI [6]: > 100 µM
TGI [7]: > 100 µM
TGI [8]: > 100 µM
TGI [9]: > 100 µM
TGI [10]: > 100 µM

COC(=O)C1=C(C(=O)Nc2cccnc2)C2OC1(C(Cc1ccccc1)Oc1ccccc1)C1OC21 (centres undefined)
GI50 [1]: 1.77 µM
TGI [1]: 3.27 µM
GI50 [2]: 18.3 µM
TGI [2]: 48.2 µM
GI50 [3]: 18.6 µM
TGI [3]: 49.9 µM
GI50 [4]: 18.8 µM
TGI [4]: 56.5 µM
GI50 [5]: 1.75 µM
TGI [5]: 5.2 µM
GI50 [6]: 12.3 µM
TGI [6]: 29.1 µM
GI50 [7]: 2.14 µM
TGI [7]: 6 µM
GI50 [8]: 9.62 µM
TGI [8]: 21.9 µM
GI50 [9]: 14.7 µM
TGI [9]: 30.3 µM
GI50 [10]: 2.77 µM
TGI [10]: 6.52 µM
